# From patent US20090005437A1, “Alpha-Ketoglutarates and Their Use as Therapeutic Agents” (priority 2004, published 2009)
# Tests used:
# HEK293 cells = experiment: Measurement of intracellular α-ketoglutarate (glutamate dehydrogenase assay); assay type: cell-based, human; conditions: 1 mM, 5 hours
# HIF1α [1] = experiment: HIF1α induction in SDH-inhibited cells transfected with Di3 shRNA (western blot); assay type: cell-based; conditions: 24 hour treatment
# HIF1α [2] = experiment: HIF1α levels in HEK293 cells in which HIF1α was induced by DMS (western blot); assay type: cell-based, human; conditions: HEK293, DMS 24 hours, then ester 3 hours
# PHD = PHD activity in cells co-expressing GFP-ODD fusion protein and HA-pVHL (GFP fluorescence, western blot); assay type: cell-based, human
# [3] = tested on: cells under hypoxic conditions; experiment: Cell death of cells grown under hypoxic conditions (0.5% oxygen)
# [4] = tested on: PHD (HIFα prolyl hydroxylase); experiment: In vitro PHD activity (hydroxylation of in vitro-translated HA-ODDD by cell extracts, gel shift on SDS-PAGE); assay type: biochemical, human
# HIF-1α = HIF-1α levels in cells incubated with DMS under normoxic conditions (western blot); assay type: cell-based; conditions: 20 mM, 48 hours
# Excerpt: Protein analyses. […] Following SDS-PAGE, proteins were blotted onto nitrocellulose and analyzed with the following antibodies: anti-HIF-1α (BD Biosciences), anti-HA (Roche), anti-GFP (BD Biosciences) or anti-Actin (Sigma).
structure (smiles),measurement,setting,value
"O=C(O)CCC(=O)C(=O)O [free α-ketoglutaric acid, 2-Oxo-pentanedioic acid]",Change of intracellular α-ketoglutarate above basal levels,HEK293 cells,no increase
"O=C(O)CCC(=O)C(=O)OCc1cccc(C(F)(F)F)c1 [TFMB-α-ketoglutarate, 2-Oxopentanedioic acid 1-(3-trifluoromethyl-benzyl)ester]",HIF1α induction observed with Di3 transfection,HIF1α [1],reversed
same,HIF1α protein levels after DMS induction,HIF1α [2],substantially reduce the levels of HIF1α protein
same,GFP fluorescence in DMS-treated cells,PHD,reduced GFP fluorescence
"CCCCCCCCOC(=O)C(=O)CCC(=O)O [octyl-α-ketoglutarate, 2-Oxo-pentanedioic acid 1-octyl ester]",Cell death under hypoxic conditions,[3],significant cell death
same,HIF1α induction observed with Di3 transfection,HIF1α [1],reversed
same,HIF1α protein levels after DMS induction,HIF1α [2],reversed DMS-induction of HIF1α completely
same,GFP fluorescence in DMS-treated cells,PHD,reduced GFP fluorescence
[Cl-].[Cl-].[Co+2] [CoCl2],GFP-ODD levels (western blot),PHD,increase in GFP-ODD levels
"O=C(O)CCC(=O)O [succinate, succinic acid]",PHD activity (appearance of non-hydroxylated HA-ODD),"[4]; HeLa cell extracts, succinate held constant at 1 mM",inhibition of PHD activity
same,"PHD activity in vitro (production of hydroxylated HA-ODDD, mobility on SDS-PAGE)","[4]; cell extracts with α-ketoglutarate, Fe2+, ascorbate, DFO 5 mM, succinate 0.1-5.0 mM",decrease in the production of hydroxylated HA-ODDD
same,IC50,"[4]; read-out: IC50 for inhibition of PHD activity (HA-ODDD hydroxylation), cell extracts with α-ketoglutarate, Fe2+, ascorbate",500 µM
"COC(=O)CCC(=O)OC [DMS, dimethyl ester succinic acid]",HIF-1α levels (western blot),HIF-1α,elevated levels of HIF-1α
same,GFP fluorescence,"PHD; 48 hours after treatment with DMS, 10% oxygen",increase in GFP fluorescence
same,Level of GFP-ODD (western blot),"PHD; DMS alone, 48 hours",rose
